Measurements: PubChem BioAssay (NCI)
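Dose response: 5 concentrations. Exposure: 48 h. Format: 96-well plates. Endpoint: linear interpolation; highest concentration if not reached. GI50: concentration for 50% inhibition of growth. TGI marks complete inhibition of growth.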

How the values were obtained:
Test in all cases: DTP human tumour cell line panel, 48 h
UO-31 renal = test system: UO-31 renal
NCI-H522 lung = test system: NCI-H522 lung
HT29 colon = test system: HT29 colon
NCI-H226 lung = test system: NCI-H226 lung
HL-60(TB) leukemia = test system: HL-60(TB) leukemia
SNB-19 CNS = test system: SNB-19 CNS
DU-145 prostate = test system: DU-145 prostate
CAKI-1 renal = test system: CAKI-1 renal
PC-3 prostate = test system: PC-3 prostate
MALME-3M melanoma = test system: MALME-3M melanoma
OVCAR-8 ovarian = test system: OVCAR-8 ovarian
HS 578T breast = test system: HS 578T breast
OVCAR-5 ovarian = test system: OVCAR-5 ovarian
SK-MEL-2 melanoma = test system: SK-MEL-2 melanoma
SK-MEL-28 melanoma = test system: SK-MEL-28 melanoma
MDA-MB-231 breast = test system: MDA-MB-231 breast
A549 NSCLC = test system: A549 NSCLC
ACHN renal = test system: ACHN renal
SK-OV-3 ovarian = test system: SK-OV-3 ovarian
SK-MEL-5 melanoma = test system: SK-MEL-5 melanoma
SF-539 CNS = test system: SF-539 CNS
UACC-257 melanoma = test system: UACC-257 melanoma
SN12C renal = test system: SN12C renal
SR leukemia = test system: SR leukemia
NCI/ADR-RES ovarian = test system: NCI/ADR-RES ovarian
IGROV1 ovarian = test system: IGROV1 ovarian
HCC-2998 colon = test system: HCC-2998 colon
TK-10 renal = test system: TK-10 renal
MDA-MB-435 = test system: MDA-MB-435
UACC-62 melanoma = test system: UACC-62 melanoma
NCI-H460 lung = test system: NCI-H460 lung
NCI-H23 lung = test system: NCI-H23 lung
LOX IMVI melanoma = test system: LOX IMVI melanoma
MOLT-4 leukemia = test system: MOLT-4 leukemia
SW-620 colon = test system: SW-620 colon
786-0 renal = test system: 786-0 renal
CCRF-CEM leukemia = test system: CCRF-CEM leukemia
U251 CNS = test system: U251 CNS
HOP-92 NSCLC = test system: HOP-92 NSCLC
HOP-62 NSCLC = test system: HOP-62 NSCLC
M14 melanoma = test system: M14 melanoma
A498 renal = test system: A498 renal
K-562 leukemia = test system: K-562 leukemia
OVCAR-3 ovarian = test system: OVCAR-3 ovarian
T-47D breast = test system: T-47D breast
COLO 205 colon = test system: COLO 205 colon
KM12 colon = test system: KM12 colon
OVCAR-4 ovarian = test system: OVCAR-4 ovarian
RPMI-8226 leukemia = test system: RPMI-8226 leukemia
MCF7 breast = test system: MCF7 breast
BT-549 breast = test system: BT-549 breast
SF-268 CNS = test system: SF-268 CNS
RXF 393 renal = test system: RXF 393 renal
HCT-116 colon = test system: HCT-116 colon
SNB-75 CNS = test system: SNB-75 CNS

C=C1c2c(C)nn(-c3ccc(C#CCOC4OC(CO)C(O)C(O)C4O)cc3)c2N(C)C23C[C@H]1C1(C)c4c(C)nn(-c5ccc(C#CCOC6OC(CO)C(O)C(O)C6O)cc5)c4N(C)C(C)(C[C@H]12)C3 (stereo partly specified)
GI50 (UO-31 renal): 2830 nM | TGI (UO-31 renal): 10100 nM | GI50 (NCI-H522 lung): 1670 nM | TGI (NCI-H522 lung): 3260 nM | GI50 (HT29 colon): 1630 nM | TGI (HT29 colon): 4210 nM | GI50 (NCI-H226 lung): 1620 nM | TGI (NCI-H226 lung): 3700 nM | GI50 (HL-60(TB) leukemia): 2070 nM | TGI (HL-60(TB) leukemia): 4430 nM | GI50 (SNB-19 CNS): 1660 nM | TGI (SNB-19 CNS): 3950 nM | GI50 (DU-145 prostate): 1970 nM | TGI (DU-145 prostate): 5160 nM | GI50 (CAKI-1 renal): 2810 nM | TGI (CAKI-1 renal): 11600 nM | GI50 (PC-3 prostate): 702 nM | TGI (PC-3 prostate): 2560 nM | GI50 (MALME-3M melanoma): 1870 nM | TGI (MALME-3M melanoma): 3660 nM | GI50 (OVCAR-8 ovarian): 1000 nM | TGI (OVCAR-8 ovarian): 3840 nM | GI50 (HS 578T breast): 472 nM | TGI (HS 578T breast): 9850 nM | GI50 (OVCAR-5 ovarian): 1780 nM | TGI (OVCAR-5 ovarian): 3540 nM | GI50 (SK-MEL-2 melanoma): 1760 nM | TGI (SK-MEL-2 melanoma): 3390 nM | GI50 (SK-MEL-28 melanoma): 1900 nM | TGI (SK-MEL-28 melanoma): 3520 nM | GI50 (MDA-MB-231 breast): 1500 nM | TGI (MDA-MB-231 breast): 3060 nM | GI50 (A549 NSCLC): 1680 nM | TGI (A549 NSCLC): 4090 nM | GI50 (ACHN renal): 2420 nM | TGI (ACHN renal): 10600 nM | GI50 (SK-OV-3 ovarian): 1720 nM | TGI (SK-OV-3 ovarian): 3110 nM | GI50 (SK-MEL-5 melanoma): 1380 nM | TGI (SK-MEL-5 melanoma): 2710 nM | GI50 (SF-539 CNS): 1780 nM | TGI (SF-539 CNS): 3330 nM | GI50 (UACC-257 melanoma): 1820 nM | TGI (UACC-257 melanoma): 4560 nM | GI50 (SN12C renal): 1380 nM | TGI (SN12C renal): 3720 nM | GI50 (SR leukemia): 3280 nM | TGI (SR leukemia): > 100000 nM | GI50 (NCI/ADR-RES ovarian): 5430 nM | TGI (NCI/ADR-RES ovarian): 47000 nM | GI50 (IGROV1 ovarian): 1560 nM | TGI (IGROV1 ovarian): 3950 nM | GI50 (HCC-2998 colon): 1570 nM | TGI (HCC-2998 colon): 3150 nM | GI50 (TK-10 renal): 2010 nM | TGI (TK-10 renal): 4040 nM | GI50 (MDA-MB-435): 1670 nM | TGI (MDA-MB-435): 3770 nM | GI50 (UACC-62 melanoma): 1220 nM | TGI (UACC-62 melanoma): 2860 nM | GI50 (NCI-H460 lung): 1690 nM | TGI (NCI-H460 lung): 3850 nM | GI50 (NCI-H23 lung): 2330 nM | TGI (NCI-H23 lung): 6590 nM | GI50 (LOX IMVI melanoma): 1370 nM | TGI (LOX IMVI melanoma): 2790 nM | GI50 (MOLT-4 leukemia): 1280 nM | TGI (MOLT-4 leukemia): 3880 nM | GI50 (SW-620 colon): 1720 nM | TGI (SW-620 colon): 3770 nM | GI50 (786-0 renal): 2660 nM | TGI (786-0 renal): 7780 nM | GI50 (CCRF-CEM leukemia): 1040 nM | TGI (CCRF-CEM leukemia): 5030 nM | GI50 (U251 CNS): 1190 nM | TGI (U251 CNS): 2590 nM | GI50 (HOP-92 NSCLC): 437 nM | TGI (HOP-92 NSCLC): 2520 nM | GI50 (HOP-62 NSCLC): 1490 nM | TGI (HOP-62 NSCLC): 2880 nM | GI50 (M14 melanoma): 1670 nM | TGI (M14 melanoma): 3440 nM | GI50 (A498 renal): 1500 nM | TGI (A498 renal): 3180 nM | GI50 (K-562 leukemia): 1890 nM | TGI (K-562 leukemia): 6750 nM | GI50 (OVCAR-3 ovarian): 1520 nM | TGI (OVCAR-3 ovarian): 3800 nM | GI50 (T-47D breast): 687 nM | TGI (T-47D breast): 6800 nM | GI50 (COLO 205 colon): 1470 nM | TGI (COLO 205 colon): 2880 nM | GI50 (KM12 colon): 1440 nM | TGI (KM12 colon): 2900 nM | GI50 (OVCAR-4 ovarian): 1680 nM | TGI (OVCAR-4 ovarian): 9940 nM | GI50 (RPMI-8226 leukemia): 290 nM | TGI (RPMI-8226 leukemia): 1720 nM | GI50 (MCF7 breast): 1380 nM | TGI (MCF7 breast): 3200 nM | GI50 (BT-549 breast): 1300 nM | TGI (BT-549 breast): 2970 nM | GI50 (SF-268 CNS): 1750 nM | TGI (SF-268 CNS): 3570 nM | GI50 (RXF 393 renal): 1620 nM | TGI (RXF 393 renal): 3520 nM

CCOC(=O)C(NC(=O)Nc1ccc(C)cc1)(OCC)C(F)(F)F (stereo unspecified)
TGI (UO-31 renal): > 100000 nM | TGI (HT29 colon): > 100000 nM | TGI (HL-60(TB) leukemia): > 100000 nM | TGI (SNB-19 CNS): > 100000 nM | TGI (CAKI-1 renal): > 100000 nM | TGI (HS 578T breast): > 100000 nM | TGI (OVCAR-5 ovarian): > 100000 nM | TGI (SK-MEL-2 melanoma): > 100000 nM | TGI (SK-MEL-28 melanoma): > 100000 nM | TGI (ACHN renal): > 100000 nM | TGI (SK-OV-3 ovarian): > 100000 nM | TGI (SF-539 CNS): > 100000 nM | TGI (UACC-257 melanoma): > 100000 nM | TGI (SR leukemia): > 100000 nM | TGI (NCI/ADR-RES ovarian): > 100000 nM | TGI (IGROV1 ovarian): > 100000 nM | TGI (HCC-2998 colon): > 100000 nM | TGI (MDA-MB-435): > 100000 nM | TGI (NCI-H23 lung): > 100000 nM | TGI (MOLT-4 leukemia): > 100000 nM | TGI (HCT-116 colon): > 100000 nM | TGI (786-0 renal): > 100000 nM | TGI (CCRF-CEM leukemia): > 100000 nM | TGI (U251 CNS): > 100000 nM | TGI (HOP-62 NSCLC): > 100000 nM | TGI (M14 melanoma): > 100000 nM | TGI (A498 renal): > 100000 nM | TGI (SNB-75 CNS): > 100000 nM | TGI (K-562 leukemia): > 100000 nM | TGI (T-47D breast): > 100000 nM | TGI (COLO 205 colon): > 100000 nM | TGI (RPMI-8226 leukemia): > 100000 nM | TGI (BT-549 breast): > 100000 nM | TGI (SF-268 CNS): > 100000 nM | TGI (RXF 393 renal): > 100000 nM
